Literature values in paper PMC8909834, “An Orally Bioavailable and Highly Efficacious Inhibitor of CDK9/FLT3 for the Treatment of Acute Myeloid Leukemia” (Cancers, 2022).

System: CDK9
Conditions: cited from earlier work; for selectivity over other CDKs: CDK9 vs other CDKs

| Structure (SMILES) | selectivity over other CDKs | IC50 [nM] |
| --- | --- | --- |
| CC(=O)N[C@@H]1CCC[C@H](C(=O)Nc2cc(-c3cnn4c3CC(C)(C)C4)c(Cl)cn2)C1 [ADZ4573] | > 10 fold | < 4 |
